Test results taken from ChEMBL document CHEMBL1153875, “Synthesis of new dipyrrolo- and furopyrrolopyrazinones related to tripentones and their biological evaluation as potential kinases (CDKs1-5, GSK-3) inhibitors” (Eur J Med Chem, 2009).

Tested on: not listed separately
Experiment: Inhibition of tubulin polymerization

| Compound | IC50 [µM] |
| --- | --- |
| COc1ccc(-c2csc3c2-n2cccc2C3=O)cc1O | 2.9 |

Target: Cyclin-dependent kinase 1/cyclin B1 (Homo sapiens, UniProt P06493)
Experiment: Inhibition of CDK1/cyclin B
Format: protein-complex assay

Cyclin-dependent kinase 1/cyclin B1, sequence (P06493 whole entry): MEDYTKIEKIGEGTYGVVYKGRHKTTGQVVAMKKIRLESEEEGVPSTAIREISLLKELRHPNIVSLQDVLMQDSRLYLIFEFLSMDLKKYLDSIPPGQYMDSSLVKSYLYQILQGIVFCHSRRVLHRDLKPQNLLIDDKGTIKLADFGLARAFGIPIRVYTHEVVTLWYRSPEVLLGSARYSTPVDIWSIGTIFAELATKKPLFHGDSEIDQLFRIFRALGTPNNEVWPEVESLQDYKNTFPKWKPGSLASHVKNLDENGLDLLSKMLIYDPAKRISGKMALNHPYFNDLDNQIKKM
Cyclin-dependent kinase 1/cyclin B1, sequence (P14635 whole entry, further chain): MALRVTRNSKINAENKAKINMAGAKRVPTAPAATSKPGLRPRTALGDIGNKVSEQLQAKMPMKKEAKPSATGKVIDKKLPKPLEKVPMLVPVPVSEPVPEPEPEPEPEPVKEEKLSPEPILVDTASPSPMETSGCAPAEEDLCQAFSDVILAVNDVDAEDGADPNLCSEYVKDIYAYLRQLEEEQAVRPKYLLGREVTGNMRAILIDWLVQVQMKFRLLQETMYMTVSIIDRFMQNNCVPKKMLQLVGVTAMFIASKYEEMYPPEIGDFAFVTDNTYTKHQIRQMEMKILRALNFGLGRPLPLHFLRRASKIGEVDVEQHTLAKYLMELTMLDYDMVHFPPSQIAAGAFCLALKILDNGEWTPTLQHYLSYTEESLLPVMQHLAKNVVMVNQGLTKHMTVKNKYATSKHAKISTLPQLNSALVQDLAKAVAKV

| Compound | IC50 [µM] |
| --- | --- |
| COc1ccc(-c2coc3c2-n2cccc2C3=O)cc1OC | > 50 |
| COc1ccc(-c2csc3c2-n2cccc2C3=O)cc1O | 5.5 |
| COc1ccc(-c2csc3c2-n2cccc2C3=O)cc1OCc1ccccc1 | > 50 |
| COc1ccc(-c2c[nH]c3c2-n2cccc2/C3=N/O)cc1O | 3.8 |
| O=C1c2[nH]cc(-c3ccc(Cl)cc3)c2-n2cccc21 | > 50 |
| COc1ccc(-c2c[nH]c3c2-n2cccc2/C3=N/O)cc1OCc1ccccc1 | 9 |
| COc1ccc(-c2c[nH]c3c2-n2cccc2C3=O)cc1OCc1ccccc1 | > 50 |
| COc1ccc(-c2c[nH]c3c2-n2cccc2C3=O)cc1O | 22 |

Target: Cyclin-dependent kinase 5 (Homo sapiens, UniProt Q00535)
Experiment: Inhibition of CDK5

Cyclin-dependent kinase 5, sequence (Q00535 whole entry): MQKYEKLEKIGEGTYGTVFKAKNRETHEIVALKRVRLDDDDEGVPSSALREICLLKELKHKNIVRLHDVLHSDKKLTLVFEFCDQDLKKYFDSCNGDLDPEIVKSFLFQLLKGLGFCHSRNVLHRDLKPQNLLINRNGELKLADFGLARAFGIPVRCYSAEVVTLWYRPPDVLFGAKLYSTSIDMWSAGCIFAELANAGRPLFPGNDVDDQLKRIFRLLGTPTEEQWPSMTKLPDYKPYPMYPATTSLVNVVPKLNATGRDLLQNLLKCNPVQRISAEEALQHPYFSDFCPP

| Compound | IC50 [µM] |
| --- | --- |
| COc1ccc(-c2coc3c2-n2cccc2C3=O)cc1OC | > 50 |
| COc1ccc(-c2c[nH]c3c2-n2cccc2C3=O)cc1OC | > 50 |
| COc1ccc(-c2c[nH]c3c2-n2cccc2/C3=N/O)cc1O | 3.2 |
| COc1ccc(-c2c[nH]c3[nH]c(=O)c4cccn4c23)cc1OC | > 50 |
| O=C1c2[nH]cc(-c3ccc(Cl)cc3)c2-n2cccc21 | > 50 |
| COc1ccc(-c2c[nH]c3c2-n2cccc2/C3=N/O)cc1OCc1ccccc1 | 14 |
| O=c1[nH]c2occ(-c3ccc(Br)cc3)c2n2cccc12 | > 50 |
| COc1ccc(-c2coc3[nH]c(=O)c4cccn4c23)cc1 | > 50 |
| O=c1[nH]c2occ(-c3ccc(Cl)c(Cl)c3)c2n2cccc12 | > 50 |
| COc1ccc(-c2coc3[nH]c(=O)c4cccn4c23)cc1OC | > 50 |
| COc1ccc(-c2c[nH]c3c2-n2cccc2C3=O)cc1OCc1ccccc1 | > 50 |
| O=c1[nH]c2[nH]cc(-c3ccc(Cl)cc3)c2n2cccc12 | > 50 |
| Cc1ccc(-c2coc3[nH]c(=O)c4cccn4c23)cc1 | > 50 |
| O=c1[nH]c2occ(-c3ccc(F)cc3)c2n2cccc12 | > 50 |
| COc1ccc(-c2c[nH]c3c2-n2cccc2C3=O)cc1O | 30 |

Target: Glycogen synthase kinase-3 beta (Homo sapiens, UniProt P49841)
Experiment: Inhibition of GSK3-beta

Glycogen synthase kinase-3 beta, sequence (P49841 whole entry): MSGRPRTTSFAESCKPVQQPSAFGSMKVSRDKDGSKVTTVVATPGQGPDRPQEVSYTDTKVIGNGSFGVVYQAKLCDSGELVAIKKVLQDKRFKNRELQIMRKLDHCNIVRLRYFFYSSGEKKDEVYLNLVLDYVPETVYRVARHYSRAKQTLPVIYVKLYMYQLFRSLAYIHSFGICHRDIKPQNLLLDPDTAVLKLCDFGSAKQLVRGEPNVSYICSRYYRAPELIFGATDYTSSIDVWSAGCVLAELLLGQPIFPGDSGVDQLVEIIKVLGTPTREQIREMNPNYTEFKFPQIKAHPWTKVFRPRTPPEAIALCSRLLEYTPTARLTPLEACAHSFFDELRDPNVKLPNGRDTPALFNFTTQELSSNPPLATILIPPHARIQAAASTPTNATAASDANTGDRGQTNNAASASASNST

| Compound | IC50 [µM] |
| --- | --- |
| COc1ccc(-c2coc3c2-n2cccc2C3=O)cc1OC | > 50 |
| COc1ccc(-c2csc3c2-n2cccc2C3=O)cc1OCc1ccccc1 | > 50 |
| COc1ccc(-c2c[nH]c3c2-n2cccc2C3=O)cc1OC | > 50 |
| COc1ccc(-c2c[nH]c3c2-n2cccc2/C3=N/O)cc1O | 5.5 |
| COc1ccc(-c2c[nH]c3[nH]c(=O)c4cccn4c23)cc1OC | > 50 |
| O=C1c2[nH]cc(-c3ccc(Cl)cc3)c2-n2cccc21 | > 50 |
| COc1ccc(-c2c[nH]c3c2-n2cccc2/C3=N/O)cc1OCc1ccccc1 | 17 |
| O=c1[nH]c2occ(-c3ccc(Br)cc3)c2n2cccc12 | > 50 |
| COc1ccc(-c2coc3[nH]c(=O)c4cccn4c23)cc1 | > 50 |
| O=c1[nH]c2occ(-c3ccc(Cl)c(Cl)c3)c2n2cccc12 | > 50 |
| COc1ccc(-c2coc3[nH]c(=O)c4cccn4c23)cc1OC | > 50 |
| COc1ccc(-c2c[nH]c3c2-n2cccc2C3=O)cc1OCc1ccccc1 | > 50 |
| O=c1[nH]c2[nH]cc(-c3ccc(Cl)cc3)c2n2cccc12 | > 50 |
| Cc1ccc(-c2coc3[nH]c(=O)c4cccn4c23)cc1 | > 50 |
| O=c1[nH]c2occ(-c3ccc(F)cc3)c2n2cccc12 | > 50 |
| COc1ccc(-c2c[nH]c3c2-n2cccc2C3=O)cc1O | 11 |
